The source of these data is patent US7906655B2, “Hepatitis C virus inhibitors” (Bristol-Myers Squibb Company, priority 2008, dated 2011).

For the first experiment, the system named is HCV 1b genotype. As to the kind of experiment: HCV Replicon assay (HCV-neo replicon cells, wild-type). Conditions: HCV 1b genotype replicon; class symbols. The format is cell-based. The method, boiled down: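 Inhibition was measured in HCV-neo (genotype 1b) replicon cells. Some assay versions used luciferase reporters.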
A general note: A replicon is a self-replicating genome or part of one, used to study replication in cells.
As usually defined, the EC50 is the concentration at which the effect is half-maximal. As for `O=C(Cc1ccccn1)N1CCC[C@H]1c1nc2ccc(C#Cc3ccc4[nH]c([C@@H]5CCCN5C(=O)[C@H]5CCCO5)nc4c3)cc2[nH]1` [Example M48, 5-((2-((2S)-1-(2-pyridinylacetyl)-2-pyrrolidinyl)-1H-benzimidazol-6-yl)ethynyl)-2-((2S)-1-((2R)-tetrahydro-2-furanylcarbonyl)-2-pyrrolidinyl)-1H-benzimidazole], the half-maximal effective concentration (EC50) is < 4.57 nM.
The same measure, in the same setting: to `CCc1ccccc1C(=O)N1CCC[C@H]1c1nc2ccc(C#Cc3ccc4[nH]c([C@@H]5CCCN5C(=O)[C@H]5CCCO5)nc4c3)cc2[nH]1` [Example M54.2] belongs 100 to 999 nM.

Still in this experiment, the particulars now being: Hepatitis C virus, HCV 1b genotype replicon; class symbols.
On to `COC(=O)N[C@H](C(=O)N1CCCC[C@H]1c1nc2ccc(-c3ccc(-c4ccc5nc([C@@H]6CCCCN6C(=O)[C@@H](NC(=O)OC)C(C)C)[nH]c5c4)cc3)cc2[nH]1)C(C)C` [Example M46.3, Methyl((1S)-1-(((2S)-2-(5-(4-(2-((2S)-1-((2S)-2-((methoxycarbonyl)amino)-3-methylbutanoyl)-2-piperidinyl)-1H-benzimidazol-5-yl)phenyl)-1H-benzimidazol-2-yl)-1-piperidinyl)carbonyl)-2-methylpropyl)carbamate], for which the EC50 is < 4.57 nM.
Still for that read-out and setting: to `O=C(Cc1ccccc1)N1CCC[C@H]1c1nc2cc(C#Cc3ccc4[nH]c([C@@H]5CCCN5C(=O)[C@H]5CCCO5)nc4c3)ccc2[nH]1` [Example M47, 5-((2-((2S)-1-(phenylacetyl)-2-pyrrolidinyl)-1H-benzimidazol-6-yl)ethynyl)-2-((2S)-1-((2R)-tetrahydro-2-furanylcarbonyl)-2-pyrrolidinyl)-1H-benzimidazole] belongs < 4.57 nM; to `O=C([C@H]1CCCO1)N1C[C@H](O)C[C@H]1c1nc2cc(C#Cc3ccc4[nH]c([C@@H]5C[C@@H](O)CN5C(=O)[C@H]5CCCO5)nc4c3)ccc2[nH]1` [Example M47.1, (3R,5S,3′R,5′S)-5,5′-(1,2-ethynediylbis(1H-benzimidazole-5,2-diyl))bis(1-((2R)-tetrahydro-2-furanylcarbonyl)-3-pyrrolidinol)], 100 to 999 nM.
For the compound `O=C(Cc1cccnc1)N1CCC[C@H]1c1nc2ccc(C#Cc3ccc4[nH]c([C@@H]5CCCN5C(=O)[C@H]5CCCO5)nc4c3)cc2[nH]1` [Example M49, 5-((2-((2S)-1-(3-pyridinylacetyl)-2-pyrrolidinyl)-1H-benzimidazol-6-yl)ethynyl)-2-((2S)-1-((2R)-tetrahydro-2-furanylcarbonyl)-2-pyrrolidinyl)-1H-benzimidazole], the EC50 was < 4.57 nM.
Same read-out and setting: to `O=C(Cc1cccs1)N1CCC[C@H]1c1nc2cc(C#Cc3ccc4nc([C@@H]5CCCN5C(=O)[C@H]5CCCO5)[nH]c4c3)ccc2[nH]1` [Example M50, 5-((2-((2S)-1-((2R)-tetrahydro-2-furanylcarbonyl)-2-pyrrolidinyl)-1H-benzimidazol-6-yl)ethynyl)-2-((2S)-1-(2-thienylacetyl)-2-pyrrolidinyl)-1H-benzimidazole] belongs < 4.57 nM; to `O=C(c1ccco1)N1CCC[C@H]1c1nc2ccc(C#Cc3ccc4[nH]c([C@@H]5CCCN5C(=O)[C@H]5CCCO5)nc4c3)cc2[nH]1` [Example M51, 5-((2-((2S)-1-(2-furoyl)-2-pyrrolidinyl)-1H-benzimidazol-6-yl)ethynyl)-2-((2S)-1-((2R)-tetrahydro-2-furanylcarbonyl)-2-pyrrolidinyl)-1H-benzimidazole], < 4.57 nM.
The same measure, in the same setting: to `O=C(CC1CC1)N1CCC[C@H]1c1nc2ccc(C#Cc3ccc4[nH]c([C@@H]5CCCN5C(=O)[C@H]5CCCO5)nc4c3)cc2[nH]1` [Example M52, 5-((2-((2S)-1-(cyclopropylacetyl)-2-pyrrolidinyl)-1H-benzimidazol-6-yl)ethynyl)-2-((2S)-1-((2R)-tetrahydro-2-furanylcarbonyl)-2-pyrrolidinyl)-1H-benzimidazole] belongs 4.57 to 99 nM.
With `CN(C)[C@@H](C(=O)N1CCC[C@H]1c1nc2cc(C#Cc3ccc4[nH]c([C@@H]5CCCN5C(=O)[C@H]5CCCO5)nc4c3)ccc2[nH]1)c1ccccc1` [Example M53, (1R)-N,N-dimethyl-2-oxo-1-phenyl-2-((2S)-2-(5-((2-((2S)-1-((2R)-tetrahydro-2-furanylcarbonyl)-2-pyrrolidinyl)-1H-benzimidazol-5-yl)ethynyl)-1H-benzimidazol-2-yl)-1-pyrrolidinyl) ethanamine], the EC50 is < 4.57 nM.
With `O=C(OCc1ccccc1)N1CCC[C@H]1c1nc2cc(C#Cc3ccc4[nH]c([C@@H]5CCCN5C(=O)[C@H]5CCCO5)nc4c3)ccc2[nH]1` [Example M54, benzyl (2S)-2-(5-((2-((2S)-1-((2R)-tetrahydro-2-furanylcarbonyl)-2-pyrrolidinyl)-1H-benzimidazol-5-yl)ethynyl)-1H-benzimidazol-2-yl)-1-pyrrolidine-carboxylate], the concentration giving a half-maximal response (EC50) was < 4.57 nM.
For the compound `O=C(c1ccccc1)N1CCC[C@H]1c1nc2ccc(C#Cc3ccc4[nH]c([C@@H]5CCCN5C(=O)[C@H]5CCCO5)nc4c3)cc2[nH]1` [Example M54.1, 5-((2-((2S)-1-benzoyl-2-pyrrolidinyl)-1H-benzimidazol-6-yl)ethynyl)-2-((2S)-1-((2R)-tetrahydro-2-furanylcarbonyl)-2-pyrrolidinyl)-1H-benzimidazole], the concentration for a half-maximal effect (EC50) was 4.57 to 99 nM.
The same measure, in the same setting: to `O=C(c1cccnc1)N1CCC[C@H]1c1nc2ccc(C#Cc3ccc4[nH]c([C@@H]5CCCN5C(=O)[C@H]5CCCO5)nc4c3)cc2[nH]1` [Example M54.3, 5-((2-((2S)-1-(3-pyridinylcarbonyl)-2-pyrrolidinyl)-1H-benzimidazol-6-yl)ethynyl)-2-((2S)-1-((2R)-tetrahydro-2-furanylcarbonyl)-2-pyrrolidinyl)-1H-benzimidazole] belongs 4.57 to 99 nM; to `O=C(c1cccs1)N1CCC[C@H]1c1nc2cc(C#Cc3ccc4nc([C@@H]5CCCN5C(=O)[C@H]5CCCO5)[nH]c4c3)ccc2[nH]1` [Example M54.4, 5-((2-((2S)-1-((2R)-tetrahydro-2-furanylcarbonyl)-2-pyrrolidinyl)-1H-benzimidazol-6-yl)ethynyl)-2-((2S)-1-(2-thienylcarbonyl)-2-pyrrolidinyl)-1H-benzimidazole], < 4.57 nM; to `O=C(c1ccoc1)N1CCC[C@H]1c1nc2ccc(C#Cc3ccc4[nH]c([C@@H]5CCCN5C(=O)[C@H]5CCCO5)nc4c3)cc2[nH]1` [Example M54.5, 5-((2-((2S)-1-(3-furoyl)-2-pyrrolidinyl)-1H-benzimidazol-6-yl)ethynyl)-2-((2S)-1-((2R)-tetrahydro-2-furanylcarbonyl)-2-pyrrolidinyl)-1H-benzimidazole], 4.57 to 99 nM.
On the same count and under the same terms, to `Cn1cccc1C(=O)N1CCC[C@H]1c1nc2ccc(C#Cc3ccc4[nH]c([C@@H]5CCCN5C(=O)[C@H]5CCCO5)nc4c3)cc2[nH]1` [Example M54.6, 5-((2-((2S)-1-((1-methyl-1H-pyrrol-2-yl)carbonyl)-2-pyrrolidinyl)-1H-benzimidazol-6-yl)ethynyl)-2-((2S)-1-((2R)-tetrahydro-2-furanylcarbonyl)-2-pyrrolidinyl)-1H-benzimidazole] belongs 4.57 to 99 nM; to `CCC(=O)N1CCC[C@H]1c1nc2ccc(C#Cc3ccc4[nH]c([C@@H]5CCCN5C(=O)[C@H]5CCCO5)nc4c3)cc2[nH]1` [Example M54.7, 5-((2-((2S)-1-propionyl-2-pyrrolidinyl)-1H-benzimidazol-6-yl)ethynyl)-2-((2S)-1-((2R)-tetrahydro-2-furanylcarbonyl)-2-pyrrolidinyl)-1H-benzimidazole], 4.57 to 99 nM.
For `CC(C)C(=O)N1CCC[C@H]1c1nc2ccc(C#Cc3ccc4[nH]c([C@@H]5CCCN5C(=O)[C@H]5CCCO5)nc4c3)cc2[nH]1` [Example M54.8, 5-((2-((2S)-1-isobutyryl-2-pyrrolidinyl)-1H-benzimidazol-6-yl)ethynyl)-2-((2S)-1-((2R)-tetrahydro-2-furanylcarbonyl)-2-pyrrolidinyl)-1H-benzimidazole], the half-maximal effective concentration (EC50) lay in the range of 4.57 to 99 nM.
Same read-out and setting: to `O=C(C1CC1)N1CCC[C@H]1c1nc2ccc(C#Cc3ccc4[nH]c([C@@H]5CCCN5C(=O)[C@H]5CCCO5)nc4c3)cc2[nH]1` [Example M54.9, 5-((2-((2S)-1-(cyclopropyl-carbonyl)-2-pyrrolidinyl)-1H-benzimidazol-6-yl)ethynyl)-2-((2S)-1-((2R)-tetrahydro-2-furanylcarbonyl)-2-pyrrolidinyl)-1H-benzimidazole] belongs 4.57 to 99 nM; to `O=C(C1CCC1)N1CCC[C@H]1c1nc2ccc(C#Cc3ccc4[nH]c([C@@H]5CCCN5C(=O)[C@H]5CCCO5)nc4c3)cc2[nH]1` [Example M54.10, 5-((2-((2S)-1-(cyclobutyl-carbonyl)-2-pyrrolidinyl)-1H-benzimidazol-6-yl)ethynyl)-2-((2S)-1-((2R)-tetrahydro-2-furanylcarbonyl)-2-pyrrolidinyl)-1H-benzimidazole], 4.57 to 99 nM.
On the same count and under the same terms, to `CNc1ccccc1C(=O)N1CCC[C@H]1c1nc2cc(C#Cc3ccc4[nH]c([C@@H]5CCCN5C(=O)[C@H]5CCCO5)nc4c3)ccc2[nH]1` [Example M54.11, N-methyl-2-(((2S)-2-(5-((2-((2S)-1-((2R)-tetrahydro-2-furanylcarbonyl)-2-pyrrolidinyl)-1H-benzimidazol-5-yl)ethynyl)-1H-benzimidazol-2-yl)-1-pyrrolidinyl)carbonyl)aniline] belongs 4.57 to 99 nM.

The experiment is the same for the next values; noted with them: Hepatitis C virus, HCV 1b genotype replicon; numeric values.
For the compound `COC(=O)N[C@H](C(=O)N1[C@@H]2C[C@@H]2C[C@H]1c1nc2ccc(-c3ccc(-c4ccc5nc([C@@H]6C[C@H]7C[C@H]7N6C(=O)[C@@H](NC(=O)OC)C(C)C)[nH]c5c4)cc3)cc2[nH]1)C(C)C` [Example M46, methyl((1S)-1-(((1R,3S,5R)-3-(6-(4-(2-((1R,3S,5R)-2-((2S)-2-((methoxycarbonyl)amino)-3-methylbutanoyl)-2-azabicyclo[3.1.0]hex-3-yl)-1H-benzimidazol-6-yl)phenyl)-1H-benzimidazol-2-yl)-2-azabicyclo[3.1.0]hex-2-yl)carbonyl)-2-methylpropyl)carbamate], the concentration giving a half-maximal response (EC50) is 0.006 nM.
On the same count and under the same terms, to `CC(C)CN[C@H]1C[C@@H](c2nc3cc(C#Cc4ccc5[nH]c([C@@H]6C[C@H](NCC(C)C)CN6C(=O)[C@H]6CCCO6)nc5c4)ccc3[nH]2)N(C(=O)[C@H]2CCCO2)C1` [Example M47.2, (3S,5S,3′S,5′S)-5,5′-(1,2-ethynediylbis(1H-benzimidazole-5,2-diyl))bis(N-isobutyl-1-((2R)-tetrahydro-2-furanylcarbonyl)-3-pyrrolidinamine)] belongs 610 nM.
